According to patent publication US20220249599A1, “TREATMENT OF IMPLANTS WITH ENGINEERED ANTIMICROBIAL AMPHIPHILIC PEPTIDES” (priority 2018, published 2022):
≈ marks a conversion by molar mass, not a printed value. Where “and” joins values, the source holds several entries; their conditions need not be identical. Equal values may be shown once. Read-outs that look alike come from different tables or passages of the source. Bridge positions count the residues as written; N and C are the ends. Square brackets hold non-standard residues; d marks the D form. Ends that are not written are not given here. Peptide text beside a SMILES is read from it. * marks the point of attachment. X1 = CC[C@H](C)CCCCC(=O)*; Dab = NCC[C@H](N)C(=O)O

Columns and labels:
[1] = tested on: Acinetobacter baumannii ATCC BAA-1797 (MDR); assay: microbe, parasite or virus in culture; assay type: cell-based; conditions: Acinetobacter baumannii ATCC BAA-1797 (MDR)
Protocol: (§1) Each peptide was formulated in PBS buffer prior to testing. Peptides of SEQ ID NO:5 and SEQ ID NO:8 were brought up in 100% DMSO with 0.002% polysorbate-80 at 1.28 mg/mL (40× the highest final test concentration of 32 mcg/mL). Final test concentration of DMSO was 2.5% in the assay at the first dilution for those two compounds.
(§2) Mueller Hinton II broth (MHB II; BD; Lot Nos. 6258541 and 7143896) was used for MIC testing of aerobic organisms. 0.002% polysorbate 80 (P80) was added to the test medium.
(§3) MIC values were determined using a broth microdilution procedure described by CLSI (1, 3). Automated liquid handlers (Multidrop 384, Labsystems, Helsinki, Finland; Biomek 2000 and Biomek FX, Beckman Coulter, Fullerton Calif.) were used to conduct serial dilutions and liquid transfers.
(§4) To prepare the drug mother plates, which would provide the serial peptide dilutions for the replicate daughter plates, the wells of columns 2-12 of standard 96-well microdilution plates (Costar 3795) were filled with 150 µl of the designated diluent for each row of peptide.
(§5) The test articles and comparator compounds ([…] at 40× the highest concentration to be tested) were dispensed into the appropriate wells in column 1. The Biomek 2000 was then used to make 2-fold serial dilutions in the mother plates from column 1 through column 11. The wells of Column 12 contained no drug and served as the organism growth control wells for the assay.
(§6) The daughter plates were loaded with 185 μL per well of MHB II using the Multidrop 384. The daughter plates were completed on the Biomek FX instrument which transferred 5 uL of peptide solution from each well of a mother plate to the corresponding well of each daughter plate in a single step. A standardized inoculum of each test organism was prepared per CLSI methods. The inoculum for each organism was dispensed into sterile reservoirs divided by length (Beckman Coulter), and the Biomek 2000 was used to inoculate the plates. Daughter plates were placed on the Biomek 2000 work surface in reverse orientation so that inoculation took place from low to high drug concentration.
(§7) Plates were stacked 3-4 high, covered with a lid on the top plate, placed in plastic bags, and incubated at 35° C. for 16 to 20 hrs. Following incubation, the microplates were removed from the incubator and viewed from the bottom using a plate viewer. […] The MIC was read and recorded as the lowest concentration of peptide that inhibited visible growth of the organism.

[2] = tested on: Enterococcus faecalis ATCC 29212 (VSE; QC); conditions: cited from earlier work
[3] = tested on: Enterobacter spp. (n = 102); assay type: cell-based, Enterobacter aerogenes and E. cloacae; conditions: Enterobacter spp. (n = 102); for % R (isolates resistant): CLSI breakpoints, colistin EUCAST
Protocol: (§8) The clinical isolates were obtained from USA hospitals. […] Plates were incubated at 35° C. overnight.

[4] = tested on: Streptococcus pneumoniae ATCC 49619 (QC); conditions: cited from earlier work
[5] = tested on: Pseudomonas aeruginosa ATCC 27853 (non-MDR; QC); conditions: cited from earlier work
[6] = tested on: Staphylococcus aureus ATCC 29213 (MSSA; QC); conditions: cited from earlier work
[7] = tested on: Escherichia coli ATCC 25922 (QC); conditions: cited from earlier work
[8] = tested on: Acinetobacter spp. (n = 104); assay type: cell-based; conditions: Acinetobacter spp. (n = 104); for % R (isolates resistant): CLSI breakpoints
Protocol: as §8

[9] = tested on: Escherichia coli (n = 101); assay type: cell-based; conditions: Escherichia coli (n = 101); for % R (isolates resistant): CLSI breakpoints, colistin EUCAST
Protocol: as §8

[10] = tested on: Pseudomonas aeruginosa (n = 109); assay type: cell-based; conditions: Pseudomonas aeruginosa (n = 109); for % R (isolates resistant): CLSI breakpoints
Protocol: as §8

[11] = tested on: Klebsiella pneumoniae (n = 101); assay type: cell-based; conditions: Klebsiella pneumoniae (n = 101); for % R (isolates resistant): CLSI breakpoints, colistin EUCAST
Protocol: as §8

[12] = macaques, 1.0 mg/kg, 30 min IV infusion, one line per individual monkey (4000, 4001, 4002)
Protocol: Animals will be obtained from the Test Facility's colony of adult male cynomolgous monkeys (Macaca fascicularis) of Chinese origin. Animals will be weighed prior to dosing.
Intravenous administration will be via 30 minute infusion into a temporary percutaneous catheter placed into a saphenous vein. Prior to and following dose administration, the catheter will be flushed with 0.5 mL saline prior to removal. All dosing syringes will be weighed prior to and following dosing.
Serial blood samples will be collected via femoral vein (cephalic or saphenous, as necessary). Approximately 1 mL blood samples will be collected into K2EDTA tubes.
Blood samples will be collected into K2EDTA tubes and stored on wet ice. Whole blood will be processed to plasma by centrifugation (2400-2700 rpm at 5° C.) within 30 minutes of collection. Plasma samples will be split into 2 equal aliquots and stored at −80° C. until analysis.
The peptide will be purified from plasma samples from each macaque using a cation exchange-based solid-phase extraction process. Prior to extraction, a known concentration of a mass-adjusted internal standard (IS) will be added to assess recovery and allow for quantitation. Purified samples will be further subjected to high-performance liquid chromatography (HPLC) using C18 300 or 130 angstrom columns prior to MS/MS analysis. Multiple charge states will be observed by MS, so MS/MS will be employed to enable multiple reaction monitoring (MRM) analyses to determine the most MRM transitions with the highest signal-to-noise gain. Compound plasma concentrations will be determined by comparing to and compensating with co-purified IS peak intensity and validated calibrated standard curves.
Toxicokinetic parameters will be calculated using non-compartmental methods as implemented in the Phoenix® WinNonlin® ver. 6.3 comprehensive TK/PK analysis software program (Pharsight Corporation; Mountain View, Calif.) using an IV infusion model. […] Values below the lower limit of quantitation (BLQ) will be assigned a value of zero for the toxicokinetic calculations. […]

[13] = tested on: S. aureus strain SH1000 biofilms; assay: In vitro biofilm disruption on stainless steel rods; assay type: cell-based; conditions: S. aureus SH1000, 10×MIC, up to 24 hours
From the text: FIG. 15 depicts the effect of administration of SEQ ID NO:1 and cefazolin on biofilm maintenance. […] SEQ ID NO:1 eliminated mature implant biofilms on a model strain of S. aureus, SH1000.

S. aureus = assay: Periprosthetic joint infection mouse model, implant biofilm CFU burden; assay type: in vivo; conditions: intraperitoneal delivery, versus untreated control mice
Protocol: Periprosthetic joint infection was modeled in a mouse by placing an intra-articular K-wire through the medullary canal of the proximal femur followed by intra-articular inoculation with S. aureus. Animals were treated systemically with an intraperitoneal delivery of cefazolin, rifampin, or the exemplary peptide of SEQ ID NO:1. Intraperitoneal delivery was chosen due to technical difficulties associated with intravenous delivery. Implant sonication and proximal femur homogenate were used to quantify viable bacteria.

[14] = tested on: Enterococcus faecalis ATCC 29212 (VSE; QC); assay type: cell-based; conditions: Enterococcus faecalis ATCC 29212 (VSE; QC)
Protocol: as §1, §2, §3, §4, §5, §6, §7

[15] = tested on: Staphylococcus aureus ATCC 43300 (MRSA); assay type: cell-based; conditions: Staphylococcus aureus ATCC 43300 (MRSA)
Protocol: as §1, §2, §3, §4, §5, §6, §7

[16] = tested on: Enterococcus faecium ATCC 51559 (VRE); assay type: cell-based; conditions: Enterococcus faecium ATCC 51559 (VRE)
Protocol: as §1, §2, §3, §4, §5, §6, §7

[17] = tested on: Pseudomonas aeruginosa ATCC BAA-2109 (MDR); assay type: cell-based; conditions: Pseudomonas aeruginosa ATCC BAA-2109 (MDR)
Protocol: as §1, §2, §3, §4, §5, §6, §7

[18] = tested on: Pseudomonas aeruginosa ATCC 27853 (non-MDR; QC); assay type: cell-based; conditions: Pseudomonas aeruginosa ATCC 27853 (non-MDR; QC)
Protocol: as §1, §2, §3, §4, §5, §6, §7

[19] = tested on: Escherichia coli ATCC 25922 (QC); assay type: cell-based; conditions: Escherichia coli ATCC 25922 (QC)
Protocol: as §1, §2, §3, §4, §5, §6, §7

[20] = tested on: Klebsiella pneumoniae ATCC BAA-1705 (KPC); assay type: cell-based; conditions: Klebsiella pneumoniae ATCC BAA-1705 (KPC)
Protocol: as §1, §2, §3, §4, §5, §6, §7

[21] = tested on: Streptococcus pyogenes ATCC 49399; assay type: cell-based; conditions: Streptococcus pyogenes ATCC 49399
Protocol: as §1, §2, §3, §4, §5, §6, §7

[22] = tested on: Enterococcus faecalis ATCC 700802 (V583 VRE); assay type: cell-based; conditions: Enterococcus faecalis ATCC 700802 (V583 VRE)
Protocol: as §1, §2, §3, §4, §5, §6, §7

[23] = tested on: Staphylococcus aureus ATCC 29213 (MSSA; QC); assay type: cell-based; conditions: Staphylococcus aureus ATCC 29213 (MSSA; QC)
Protocol: as §1, §2, §3, §4, §5, §6, §7

[24] = tested on: Escherichia coli ATCC 35218 (ESBL); assay type: cell-based; conditions: Escherichia coli ATCC 35218 (ESBL)
Protocol: as §1, §2, §3, §4, §5, §6, §7

[25] = tested on: Staphylococcus aureus NRS382 (USA100; HA-MRSA); assay type: cell-based; conditions: Staphylococcus aureus NRS382 (USA100; HA-MRSA)
Protocol: as §1, §2, §3, §4, §5, §6, §7

[26] = tested on: Streptococcus pneumoniae ATCC 49619 (QC); assay type: cell-based; conditions: Streptococcus pneumoniae ATCC 49619 (QC)
Protocol: as §1, §2, §3, §4, §5, §6, §7

[27] = tested on: Escherichia coli ATCC BAA-2471 (NDM-1); assay type: cell-based; conditions: Escherichia coli ATCC BAA-2471 (NDM-1)
Protocol: as §1, §2, §3, §4, §5, §6, §7

[28] = tested on: Acinetobacter baumannii ATCC 19606 (non-MDR); assay type: cell-based; conditions: Acinetobacter baumannii ATCC 19606 (non-MDR)
Protocol: as §1, §2, §3, §4, §5, §6, §7

[29] = tested on: Streptococcus agalactiae ATCC 13813; assay type: cell-based
Protocol: as §1, §2, §3, §4, §5, §6, §7

[30] = tested on: P. aeruginosa strains (PAO1 and 2 clinical isolates); assay type: cell-based; conditions: three P. aeruginosa strains, 0.5×MIC exposure
From the text: Each antibiotic was compared for their propensity to select for bacterial resistance phenotypes in vitro.

## C[C@@H](O)[C@H]1C(=O)N2C(C(=O)O)=C(S[C@@H]3CN[C@H](C(=O)N(C)C)C3)[C@H](C)[C@H]12 [Meropenem]
[1]; ATCCBAA1797, read-out: MIC
  MIC: > 4 µg/mL
[2]
  MIC range in parentheses below the MIC (QC range): (2-8) μg/mL
[3]
  % R (isolates resistant): 3.9%
[4]
  MIC range in parentheses below the MIC (QC range): (0.03-0.25) μg/mL
[5]
  MIC range in parentheses below the MIC (QC range): (0.12-1) μg/mL
[6]
  MIC range in parentheses below the MIC (QC range): (0.03-0.12) μg/mL
[7]
  MIC range in parentheses below the MIC (QC range): (0.008-0.06) μg/mL
[8]
  % R (isolates resistant): 65.4%
[9]
  % R (isolates resistant): 1%
[10]
  % R (isolates resistant): 20.2%
[10]; listed as meropenem
  % R (isolates resistant): 20%
[11]
  % R (isolates resistant): 50.5%

## KKTHTKTKKTHTKTKKTHTK [SEQ ID NO: 13]
[12]
  Dose Normalized Cmax: 5000 and 7000 and 6000

## Cc1nnc(SCC2=C(C(=O)O)N3C(=O)[C@@H](NC(=O)Cn4cnnn4)[C@H]3SC2)s1 [Cefazolin, cefazolin]
[13]
  Reduction of mature biofilm on stainless steel rods: did not achieve a three-log reduction
S. aureus
  Reduction of implant biofilm CFU burden (sonicate culture): one log reduction in viable bacteria as compared to untreated controls, but this reduction was not statistically significant

## CC[C@H](C)CCCCC(=O)N[C@@H](CCN)C(=O)N[C@H](C(=O)N[C@@H](CCN)C(=O)N[C@H]1CCNC(=O)[C@H]([C@@H](C)O)NC(=O)[C@H](CCN)NC(=O)[C@H](CCN)NC(=O)[C@H](CC(C)C)NC(=O)[C@@H](CC(C)C)NC(=O)[C@H](CCN)NC1=O)[C@@H](C)O [Colistin, reference compound] (X1-[Dab]T[Dab][Dab][Dab][dL]L[Dab][Dab]T; lactam 4-C)
[1]
  MIC: 0.5 µg/mL (≈ 0.428 µM)
[14]
  MIC: >32 µg/mL
[15]
  MIC: >32 µg/mL
[16]
  MIC: >32 µg/mL
[17]
  MIC: 0.12 µg/mL (≈ 0.103 µM)
[18]
  MIC: 0.25 µg/mL (≈ 0.214 µM)
[19]
  MIC: 0.12 µg/mL (≈ 0.103 µM)
[20]
  MIC: 0.12 µg/mL (≈ 0.103 µM)
[21]
  MIC: >32 µg/mL
[22]
  MIC: >32 µg/mL
[23]
  MIC: >32 µg/mL
[24]
  MIC: 0.12 µg/mL (≈ 0.103 µM)
[25]
  MIC: >32 µg/mL
[26]
  MIC: >32 µg/mL
[27]
  MIC: 0.06 µg/mL (≈ 0.0513 µM)
[28]
  MIC: 0.25 µg/mL (≈ 0.214 µM)
[29]
  MIC: >32 µg/mL
[3]
  MIC50: 0.12 µg/mL (≈ 0.103 µM)
  MIC90: 0.25 µg/mL (≈ 0.214 µM)
  Mode (MIC): 0.12 µg/mL
  % R (isolates resistant): 5.8%
[5]
  MIC range in parentheses below the MIC (QC range): (0.5-4) μg/mL
[30]
  Time to development of resistance (fold MIC>10): 13 days
[7]
  MIC range in parentheses below the MIC (QC range): (0.25-2) μg/mL
[8]
  MIC50: 0.25 µg/mL (≈ 0.214 µM)
  MIC90: >32 µg/mL
  Mode (MIC): 0.25 µg/mL
  % R (isolates resistant): 20.2%
[9]
  MIC50: 0.12 µg/mL (≈ 0.103 µM)
  MIC90: 0.12 µg/mL (≈ 0.103 µM)
  MIC range: ≤0.03 to 0.5 µg/mL
  Mode (MIC): 0.12 µg/mL
  % R (isolates resistant): 0%
[10]
  MIC50: 0.5 µg/mL (≈ 0.428 µM)
  MIC90: 1 µg/mL (≈ 0.855 µM)
  Mode (MIC): 0.5 µg/mL
  % R (isolates resistant): 7.3%
[11]
  MIC50: 0.12 µg/mL (≈ 0.103 µM)
  MIC90: 32 µg/mL (≈ 27.4 µM)
  Mode (MIC): 0.12 µg/mL
  % R (isolates resistant): 27.7%
